Like-named read-outs stand apart in the source and are kept apart here. Square brackets hold non-standard residues; d marks the D form. Peptide text beside a SMILES is read from it. * marks the point of attachment. Dolaproine = CO[C@@H]([C@@H]1CCCN1)[C@@H](C)C(=O)O; Dil = CC[C@H](C)[C@H](NC)[C@@H](CC(=O)O)OC; X1 = C[C@@H](N*)[C@@H](O)c1ccccc1; NMeV = CN[C@H](C(=O)O)C(C)C
Legend:
[1] = dissolution / appearance in PBS
Procedure: Paclitaxel and the prepared paclitaxel adiposomes were dissolved in PBS, respectively.

[2] = cited from earlier work

Row | Compound | solubility / state in PBS ([1]; in PBS) | logP [2] | solubility / state in PBS [1]
1 | CC(=O)O[C@H]1C(=O)[C@@]2(C)[C@H]([C@H](OC(=O)c3ccccc3)[C@]3(O)C[C@H](OC(=O)[C@H](O)[C@@H](NC(=O)c4ccccc4)c4ccccc4)C(C)=C1C3(C)C)[C@]1(OC(C)=O)CO[C@@H]1C[C@@H]2O [Paclitaxel] | very low solubility in PBS |  | 
2 | CC[C@H](C)[C@@H]([C@@H](CC(=O)N1CCC[C@H]1[C@H](OC)[C@@H](C)C(=O)N[C@H](C)[C@@H](O)c1ccccc1)OC)N(C)C(=O)[C@@H](NC(=O)[C@@H](NC)C(C)C)C(C)C [Monomethyl auristatin E] (H-[NMeV]V[Dil][Dolaproine]-X1) | very low solubility in PBS | 3.4 | 
3 | CC[C@@]1(O)C(=O)OCc2c1cc1n(c2=O)Cc2cc3ccccc3nc2-1 [Camptothecin] | very low solubility in PBS | 1.9 | 
4 | C=CCc1ccc(O)c(-c2ccc(O)c(CC=C)c2)c1 [Honokiol] |  |  | very low solubility in PBS
